Patent publication US20140221286A1, “SODIUM CHANNEL BLOCKERS REDUCE GLUCAGON SECRETION” (Gilead Sciences, Inc., priority 2011, published 2014)

What was measured:
α-TC1 clone 9 cells = assay type: cell-based; settings: for Glucagon Secretion % Inhibition: veratridine-induced (30 μM for 1 hour), at a given concentration (not given)
Experimental: (§1) Voltage-dependent block (VDB) of […] was determined by whole-cell voltage-clamp recordings of sodium current using a QPatch 16× automated electrophysiological system in HEK 293 cells overexpressing Nav 1.3 and Nav 1.7 sodium channels, respectively. VDB of peak current was measured using an 8 s conditioning prepulse (to -55 mV for NaV1.3 and to −60 mV for […]) followed by a test pulse (0 mV, 20 ms). Currents are normalized to the peak current recorded in the absence of drug and expressed as percent inhibition. […] Glucagon secretion in the cells was induced by the treatment with veratridine at 30 μM for 1 hour in Krebs-Ringer buffer containing 0.1% BSA. Percent inhibition of glucagon secretion by Na channel blockers was calculated from the reduction of veratridine-induced glucagon secretion in the absence of drug.
Cells were seeded at 0.4×10^5/well in 96-well plates and allowed to recover for 1 day. The media was then changed to serum-free DMEM and incubated overnight. Cells were then treated with sodium-channel blockers in the presence of veratridine (15 μM) in Krebs-Ringer buffer containing 0.1% BSA and 3 mM glucose for 1 h. Supernatants were collected and stored at −80° C. until analysis. Glucagon levels were measured by an ELISA kit.

hNaV1.3 = molecular target: T1, hNaV1.3 (Homo sapiens, UniProt Q9NY46); experiment: Voltage-dependent block (VDB) of hNaV1.3, QPatch whole-cell voltage-clamp in HEK-293 cells; assay type: cell-based; settings: 8 s prepulse to -55 mV; at a given concentration (not given)
T1 construct: (Vanderbilt University, Nashville, Tenn.)
T1 sequence (Q9NY46 1-1951 isoform Q9NY46-4): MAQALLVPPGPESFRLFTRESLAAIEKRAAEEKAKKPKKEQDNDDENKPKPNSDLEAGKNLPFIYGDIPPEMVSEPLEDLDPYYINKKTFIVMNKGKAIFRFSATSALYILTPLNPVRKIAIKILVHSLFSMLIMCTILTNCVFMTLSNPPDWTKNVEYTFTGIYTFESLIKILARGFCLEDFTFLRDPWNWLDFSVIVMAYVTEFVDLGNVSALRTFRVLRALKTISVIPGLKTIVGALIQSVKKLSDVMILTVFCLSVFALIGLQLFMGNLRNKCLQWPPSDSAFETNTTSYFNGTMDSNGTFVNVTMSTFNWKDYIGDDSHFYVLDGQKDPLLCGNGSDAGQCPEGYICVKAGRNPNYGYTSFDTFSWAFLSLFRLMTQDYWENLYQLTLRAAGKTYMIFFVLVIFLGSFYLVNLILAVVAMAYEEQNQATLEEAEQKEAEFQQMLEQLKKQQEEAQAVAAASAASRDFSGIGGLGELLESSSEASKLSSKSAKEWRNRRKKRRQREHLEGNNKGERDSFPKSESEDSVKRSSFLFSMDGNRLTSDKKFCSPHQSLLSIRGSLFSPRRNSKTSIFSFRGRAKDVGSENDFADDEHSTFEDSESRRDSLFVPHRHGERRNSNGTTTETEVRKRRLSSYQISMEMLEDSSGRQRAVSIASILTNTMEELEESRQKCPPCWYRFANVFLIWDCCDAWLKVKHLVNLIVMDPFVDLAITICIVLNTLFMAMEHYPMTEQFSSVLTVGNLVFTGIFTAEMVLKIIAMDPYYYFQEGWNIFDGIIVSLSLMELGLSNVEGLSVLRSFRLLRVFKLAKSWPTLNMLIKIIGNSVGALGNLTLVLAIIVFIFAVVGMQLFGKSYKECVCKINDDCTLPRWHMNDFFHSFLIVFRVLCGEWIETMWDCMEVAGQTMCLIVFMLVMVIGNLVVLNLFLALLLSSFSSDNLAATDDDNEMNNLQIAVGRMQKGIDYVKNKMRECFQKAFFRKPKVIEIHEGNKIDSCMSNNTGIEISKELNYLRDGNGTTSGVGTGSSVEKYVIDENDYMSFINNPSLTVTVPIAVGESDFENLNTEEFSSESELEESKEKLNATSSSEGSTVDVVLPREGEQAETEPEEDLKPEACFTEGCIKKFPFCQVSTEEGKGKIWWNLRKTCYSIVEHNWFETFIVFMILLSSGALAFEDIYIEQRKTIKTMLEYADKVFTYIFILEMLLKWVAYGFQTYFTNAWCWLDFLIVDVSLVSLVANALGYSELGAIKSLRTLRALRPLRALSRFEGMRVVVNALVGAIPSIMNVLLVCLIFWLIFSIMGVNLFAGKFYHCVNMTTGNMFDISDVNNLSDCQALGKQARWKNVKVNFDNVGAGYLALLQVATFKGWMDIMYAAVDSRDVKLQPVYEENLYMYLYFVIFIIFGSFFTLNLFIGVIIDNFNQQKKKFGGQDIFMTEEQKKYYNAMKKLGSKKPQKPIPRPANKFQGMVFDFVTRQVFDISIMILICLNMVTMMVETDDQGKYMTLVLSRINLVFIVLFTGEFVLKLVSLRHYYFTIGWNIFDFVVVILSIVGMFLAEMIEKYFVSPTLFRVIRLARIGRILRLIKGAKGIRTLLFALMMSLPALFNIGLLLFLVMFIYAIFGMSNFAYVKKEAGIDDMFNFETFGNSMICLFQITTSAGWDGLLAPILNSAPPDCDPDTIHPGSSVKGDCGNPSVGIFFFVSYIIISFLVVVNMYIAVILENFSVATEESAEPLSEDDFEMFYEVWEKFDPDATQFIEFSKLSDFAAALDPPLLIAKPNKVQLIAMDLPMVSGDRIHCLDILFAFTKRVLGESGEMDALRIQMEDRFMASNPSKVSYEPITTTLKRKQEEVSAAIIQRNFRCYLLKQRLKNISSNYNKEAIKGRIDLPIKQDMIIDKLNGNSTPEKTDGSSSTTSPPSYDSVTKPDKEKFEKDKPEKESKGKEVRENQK
T1 sequence (Q07699 19-218 partner): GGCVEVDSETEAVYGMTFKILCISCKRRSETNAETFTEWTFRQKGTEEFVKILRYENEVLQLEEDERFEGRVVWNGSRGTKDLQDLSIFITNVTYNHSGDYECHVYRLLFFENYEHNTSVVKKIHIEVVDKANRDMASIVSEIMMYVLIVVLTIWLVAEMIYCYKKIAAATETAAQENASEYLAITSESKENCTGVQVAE
T1 sequence (O60939 30-215 partner): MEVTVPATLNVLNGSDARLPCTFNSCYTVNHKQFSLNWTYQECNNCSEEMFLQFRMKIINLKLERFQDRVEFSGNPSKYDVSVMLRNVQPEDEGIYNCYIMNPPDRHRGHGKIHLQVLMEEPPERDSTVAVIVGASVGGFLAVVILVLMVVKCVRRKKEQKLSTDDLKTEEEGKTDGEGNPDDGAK
Experimental: as §1
(Vanderbilt University, Nashville, Tenn.). The cells were continuously maintained in a humidified, 5% CO2 atmosphere at 37° C. in DMEM high glucose growth medium supplemented with 10% FBS, 2 mM L-glutamine, 100 U/mL penicillin, 100 μg/mL streptomycin, 1 mg/mL G418 and 3 μg/mL puromycin.
(§2) Whole-cell voltage-clamp recordings were used to measure the activity of test compounds against hNaV1.3 and hNaV1.7. Sodium currents were recorded at room temperature using a QPatch 16× automated electrophysiological system (Sophion Bioscience, Copenhagen, Denmark). Cells were washed with PBS and then incubated with Detachin for 2 minutes at room temperature. Cells were then resuspended in growth media, pelleted by centrifugation and resuspended in CHO-S-SFM II serum free media supplemented with 100 U/mL penicillin, 100 μg/mL streptomycin and 10 mM HEPES. The cells were allowed to recover for 30 min at room temperature with constant stirring and then loaded into the QPatch cell holder.
(§3) The cells were loaded into primed single hole (2 MΩ) large QPlates and the whole-cell configuration was established using the default protocol. Cells were allowed to stabilize for 10 min after establishment of the whole-cell configuration before current was measured. […] All currents are low-pass Bessel filtered at 5 kHz and digitized at 50 kHz.
(§4) Specific voltage-clamp protocols assessing voltage-dependent block (VDB, also termed state-dependent block) are used. VDB of peak current was measured following an 8 s conditioning prepulse (to -55 mV for NaV1.3 and to −60 mV for NaV1.7) followed by a test pulse to 0 mV (20 ms). An interpulse (−120 mV, 10 ms) was used to recover non-drug bound channels from fast inactivation. The prepulse potential was determined by the steady-state inactivation curves for NaV1.3 and NaV1.7. […] Multiple applications of drug were used to ensure complete solution exchange and the cells were allowed to stabilize in the drug containing solution for two minutes. Currents were normalized to the peak current recorded in the absence of drug and expressed as percent inhibition.

hNaV1.7 = hNaV1.7 (Homo sapiens, UniProt Q15858); experiment: Voltage-dependent block (VDB) of hNaV1.7, QPatch whole-cell voltage-clamp in HEK-293 cells; assay type: cell-based; settings: 8 s prepulse to −60 mV; at a given concentration (not given)
Sequence of hNaV1.7 (Q15858 1-1977 isoform Q15858-3): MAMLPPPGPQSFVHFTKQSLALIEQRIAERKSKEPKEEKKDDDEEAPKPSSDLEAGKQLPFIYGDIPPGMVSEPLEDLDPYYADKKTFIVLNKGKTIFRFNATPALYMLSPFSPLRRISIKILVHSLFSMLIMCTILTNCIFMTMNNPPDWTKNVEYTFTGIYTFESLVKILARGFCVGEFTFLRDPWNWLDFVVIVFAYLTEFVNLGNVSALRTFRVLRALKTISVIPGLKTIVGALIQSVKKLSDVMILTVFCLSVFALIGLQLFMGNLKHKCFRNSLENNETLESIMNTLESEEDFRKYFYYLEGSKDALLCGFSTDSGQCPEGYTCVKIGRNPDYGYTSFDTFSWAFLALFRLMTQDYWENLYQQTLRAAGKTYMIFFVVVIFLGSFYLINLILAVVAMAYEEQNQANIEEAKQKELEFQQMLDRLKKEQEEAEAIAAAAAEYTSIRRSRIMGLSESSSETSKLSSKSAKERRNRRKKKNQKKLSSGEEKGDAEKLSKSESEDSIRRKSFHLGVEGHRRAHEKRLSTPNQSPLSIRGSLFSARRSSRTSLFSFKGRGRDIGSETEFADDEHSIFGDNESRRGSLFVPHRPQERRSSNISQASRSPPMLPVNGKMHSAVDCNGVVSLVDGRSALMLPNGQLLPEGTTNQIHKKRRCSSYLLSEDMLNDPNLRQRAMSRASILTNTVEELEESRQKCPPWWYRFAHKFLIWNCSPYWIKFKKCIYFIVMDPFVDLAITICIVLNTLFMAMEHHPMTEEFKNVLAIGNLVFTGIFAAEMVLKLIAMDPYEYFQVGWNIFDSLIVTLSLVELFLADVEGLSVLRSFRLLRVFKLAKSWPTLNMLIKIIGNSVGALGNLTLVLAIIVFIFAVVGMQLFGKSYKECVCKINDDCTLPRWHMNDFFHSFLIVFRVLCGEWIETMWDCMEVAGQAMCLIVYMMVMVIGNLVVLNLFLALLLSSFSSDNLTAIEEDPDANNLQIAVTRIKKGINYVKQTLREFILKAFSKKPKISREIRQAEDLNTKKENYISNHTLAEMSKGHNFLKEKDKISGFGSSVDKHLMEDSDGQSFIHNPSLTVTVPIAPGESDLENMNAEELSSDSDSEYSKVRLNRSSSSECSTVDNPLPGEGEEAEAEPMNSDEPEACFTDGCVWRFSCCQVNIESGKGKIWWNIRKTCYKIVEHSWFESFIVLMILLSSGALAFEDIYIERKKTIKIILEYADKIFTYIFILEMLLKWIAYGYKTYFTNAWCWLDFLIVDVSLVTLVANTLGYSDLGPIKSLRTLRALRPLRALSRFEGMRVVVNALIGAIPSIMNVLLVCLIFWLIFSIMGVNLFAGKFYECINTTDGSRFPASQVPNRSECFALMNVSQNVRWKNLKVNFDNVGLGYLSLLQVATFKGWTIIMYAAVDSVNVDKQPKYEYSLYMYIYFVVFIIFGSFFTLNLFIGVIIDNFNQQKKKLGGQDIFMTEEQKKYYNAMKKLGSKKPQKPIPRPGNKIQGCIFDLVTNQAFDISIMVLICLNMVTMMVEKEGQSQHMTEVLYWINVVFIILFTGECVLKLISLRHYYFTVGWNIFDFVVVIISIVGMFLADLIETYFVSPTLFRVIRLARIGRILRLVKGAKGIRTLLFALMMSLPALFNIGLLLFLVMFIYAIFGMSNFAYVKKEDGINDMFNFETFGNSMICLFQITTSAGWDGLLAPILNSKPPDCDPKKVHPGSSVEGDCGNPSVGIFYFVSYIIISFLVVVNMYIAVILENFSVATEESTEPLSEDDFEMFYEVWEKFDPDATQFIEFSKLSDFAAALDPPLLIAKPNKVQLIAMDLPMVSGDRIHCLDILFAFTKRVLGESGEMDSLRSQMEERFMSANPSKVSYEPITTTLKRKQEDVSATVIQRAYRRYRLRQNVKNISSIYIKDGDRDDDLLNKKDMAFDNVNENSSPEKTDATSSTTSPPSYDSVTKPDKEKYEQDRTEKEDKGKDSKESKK
Sequence of hNaV1.7 (Q07699 19-218 partner): as the sequence (Q07699 19-218 partner) above
Experimental: as §1
The cells were continuously maintained in a humidified, 5% CO2 atmosphere at 37° C. in MEM growth medium supplemented with 10% FBS, 2 mM L-glutamine, 100 U/mL penicillin, 100 μg/mL streptomycin, 0.6 mg/mL G418 and 2 μg/mL blastocydin.
as §2, §3, §4

rat pancreatic islets [1] = experiment: Glucagon secretion in rat pancreatic islets under low glucose (3 mM), ELISA; assay type: cell-based
rat pancreatic islets [2] = experiment: Veratridine-induced glucagon secretion in rat pancreatic islets; assay type: cell-based
human pancreatic islets = experiment: Veratridine-induced glucagon secretion in human pancreatic islets; assay type: cell-based; settings: veratridine 30 μM
ZDF diabetic rats = experiment: ZDF diabetic rats, animal model of type 2 diabetes; assay type: in vivo, rat
Experimental: All sections from fluorescent staining were viewed under fluorescent microscope and the stained areas were digitally photographed at a magnification of 20×. The images taken at different magnification were normalized using the standard ruler grade (S1 Finder Graticule, 68040, Electron Microscopy Science, Hatfield, Pa.). Analyses of islet areas and entire section areas were performed using ImageJ software (NIH, MD). Three sections from each of 6 animals per treatment group were analyzed. Data are presented as mean±SEM. *, p<0.05; **, p<0.01; ***, p<0.001 by One-way ANOVA.
Male ZDF Leprfa/Crl rats were received at 5 weeks of age from Charles River Laboratories Inc., (Wilmington, Mass.) and were acclimated until study initiation at 6 weeks of age. Drugs were given to the animals in Purina 5008 for 10 weeks at doses approximately 170 mg/kg/d of ranolazine, 0.6 mg/kg/d of compound A and 30 mg/kg/d of sitagliptin as positive control. Fasting (12-14 h fast) and non-fasting blood samples were obtained by tail-nick and blood glucose was measured using a Freestyle Lite glucose meter (Abbott Laboratories Inc., Abbott Park, Ill.). HbA1c levels were monitored every other week. Twenty four hour water consumption as surrogate marker for diabetes for each rat was measured at least once per week.

SMILES	Glucagon Secretion % Inhibition (α-TC1 clone 9 cells) [%]	hNav1.3 VDB % Inhibition (hNaV1.3) [%]	hNav1.7 VDB % Inhibition (hNaV1.7) [%]	other results
O=C(NCc1ccc(C(F)(F)F)c(Cl)c1)c1ccc(S(=O)(=O)Nc2ncc(Cl)s2)cc1 [C, N-(3-chloro-4-(trifluoromethyl)benzyl)-4-(N-(5-chlorothiazol-2-yl)sulfamoyl)benzamide]	41	92.16	7.81	
FC(F)(F)Oc1ccc(-c2ccc3nnc(Oc4ccccc4)n3c2)cc1 [D, 3-phenoxy-6-(4-(trifluoromethoxy)phenyl)-[1,2,4]triazolo[4,3-a]pyridine]	33.75	49.35	89.74	
CC(C)(C)OC(=O)N[C@H](Cc1ccccc1)C(=O)N[C@@H]1CCc2ccccc2N(CC(F)(F)F)C1 [E, tert-butyl (R)-1-oxo-3-phenyl-1-((R)-1-(2,2,2-trifluoroethyl)-2,3,4,5-tetrahydro-1H-benzo[b]azepin-3-ylamino)propan-2-ylcarbamate]	34.53	23.18	23.73	
COCC(F)(F)c1nnc2ccc(-c3ccc(Oc4ccc(Cl)cc4)cc3)cn12 [F, 6-(4-(4-chlorophenoxy)phenyl)-3-(1,1-difluoro-2-methoxyethyl)-[1,2,4]triazolo[4,3-a]pyridine]	4	2.32	14.72	
CS(=O)(=O)Nc1ccc(-c2ccc(Cl)c(C(F)(F)F)c2)c(Cl)c1 [G, N-(2,4′-dichloro-3′-(trifluoromethyl)biphenyl-4-yl)methanesulfonamide]	3.5	4.01	6.04	
NC1=N[C@H](O)[C@H]2[C@H]3O[C@]4(O)O[C@@H]([C@@H](O)[C@@]2(N1)[C@@H]4O)[C@]3(O)CO [TTX, tetrodotoxin]				maximal reduction of glucagon secretion as compared to the vehicle control (rat pancreatic islets [1]): 47±6%; reduction of veratridine-induced glucagon secretion (in words) (rat pancreatic islets [2]): concentration-dependently reduced; reduction of veratridine-induced increase of glucagon secretion (α-TC1 clone 9 cells): 100±6%
COc1ccc(C(=O)O[C@H]2CC[C@@]3(C)[C@@H]4CC[C@H]5[C@]6(O)C[C@H](O)[C@@]7(O)[C@@H](CN8C[C@@H](C)CC[C@H]8[C@@]7(C)O)[C@]6(O)C[C@@]53O[C@]24O)cc1OC [Veratridine]				increase in glucagon secretion (rat pancreatic islets [2]; veratridine at 30 μM): more than 3 fold; increase in glucagon secretion (human pancreatic islets): ~9 fold
N[C@@H](CC(=O)N1CCn2c(nnc2C(F)(F)F)C1)Cc1cc(F)c(F)cc1F [sitagliptin]				insulin staining per islet (ZDF diabetic rats; 10 weeks treatment): 90.0±2.1%; islet area/pancreas area (ZDF diabetic rats; 10 weeks treatment): 0.98±0.3%; staining of glucagon per islet versus vehicle (ZDF diabetic rats; 10 weeks treatment): significantly less; water consumption (surrogate marker for diabetes) (ZDF diabetic rats; in Purina 5008 diet, during diabetes development): significantly prevented the increase; HbA1c levels versus vehicle group (ZDF diabetic rats; in Purina 5008 diet, weeks 4, 6 and 8): significantly lower; fasting plasma glucose levels versus vehicle (ZDF diabetic rats; in Purina 5008 diet, weeks 7 and 9): significantly lower
